Laboratory results: patent US20240327415A1, “Multicomponent Complexes, Including Salts, Crystalline Forms, and Hydrates and Solvates of ENT1 Inhibitors” (iTeos Belgium SA, priority 2023, published 2024)
Structures can show the parent of a compound that is named as a salt.

Columns and labels:
Type in all cases: physicochemical
[1] = solution stability in 1-propanol:water (80:20% v/v) at 50° C. (Example 8)
Protocol: Example 8-Solution Stability of Compound 1 di(hydrogen sulfate): As per Table 44, weighed amounts (mg) of Compound 1 (free base) were added to 5×1.5 mL screw cap vials. Sulfuric acid equivalents were added to each vial as solutions in volumes of 1-propanol: water (80:20% v/v) as further set forth in Table 44. Salt formation occurred in situ. The target free base concentration was about 186 mg/mL. The solutions were stirred at 50° C. for about 24 hours. […] Subsamples (50 μL) of the solutions were extracted for HPLC analysis after 2, 4, 6, and 23 hours of stirring at 50° C.

[2] = thermodynamic solubility in 8 aqueous media (Example 19); conditions: for solubility in aqueous media: 24 hours at 37° C.
Protocol: UPLC System—UPLC: ThermoFisher Vanquish, Detector 1: UV detector set at 266 nm
UPLC Conditions— • Auto sampler temp.: RT • Column: Agilent Eclipse Plus C18 HD (50×2.1 mm; 1.8 μm) • Column temp: 40° C. • Gradient: Mobile phase A: 10 mM ammonium acetate in water • Mobile phase B: Acetonitrile • Flow: 0.6 mL/min • Gradient:
• Concentration: ca. 1.0 mg/mL • Solvent: ACN/water 50:50 • Injection volume: 1 μl • Retention time: 2.9 min
Example 19-Solubility of Crystalline Form 2 Compound 1 di(hydrogen sulfate) trihydrate: The thermodynamic solubility of crystalline Form 2 Compound 1 di(hydrogen sulfate) trihydrate was determined in 8 aqueous media (0.1M HCl, Phthalate buffer pH 3, acetate buffer pH 4.2, phosphate buffer pH 7, phosphate buffer pH 7.4, alkaline borate buffer pH 9.0, purified water EP/USP and phosphate water pH 12). Buffer solutions were prepared according to the United States Pharmacopeia USP 43 with modified buffer strength. Suspensions were prepared by addition of a single aliquot of the aqueous medium to the crystalline Form 2 Compound 1 di(hydrogen sulfate) trihydrate. The pH was titrated to the targeted pH with 1M NaOH. After incubation for 24 hours at 37° C., the pH was measured, and the mother liquors were filtered and analyzed by UPLC to determine the concentration of the free base. The residual solids after the solubility determination were ambient- and vacuum dried and analyzed by HT-XRPD.

[3] = pH solubility studies in buffers and biorelevant media (Example 16); parameters: key: M4: Crystalline Form 4 mono(hydrogen sulfate); Crystalline Form 2 di(hydrogen sulfate) trihydrate; Amorphous; conditions: pH 6.8 (Phosphate), 24 h
Protocol: Example 16—pH Solubility Studies—(1) Crystalline Form 2 Compound 1 di(hydrogen sulfate) trihydrate, (2) Crystalline Form 3 Compound 1 di(hydrogen sulfate), and (3) Crystalline Form 4 Compound 1 mono(hydrogen sulfate): pH solubility studies were carried out on the prepared crystalline Form 2 Compound 1 di(hydrogen sulfate) trihydrate, crystalline Form 3 Compound 1 di(hydrogen sulfate) and crystalline Form 4 Compound 1 mono(hydrogen sulfate) in the following media: (1) HCl/KCl, pH 1.2; (2) Acetate, pH 4.5; (3) Phosphate, pH 6.8; (4) FaSSIF; (5) FeSSIF; and (6) FaSSGF. Slurries of the hydrogen sulfate forms were prepared in the appropriate medium and stirred at 25° C. For the experiments in the buffer media, the pH of the slurry samples was measured and adjusted as required after 1 hour and 23 hours of the slurrying. Additional solid was added where dissolution was observed post-adjustment. The pH of the samples in the biorelevant media was measured at the 23 hour timepoint. No pH adjustment was made for the biorelevant media. After a total of 24 hours of slurrying, the mother liquors were extracted via centrifugation, and the concentrations and solution purity were determined by HPLC. The residual solids were isolated and analyzed by XRPD and are shown in FIG. 77, FIG. 78, and FIG. 79. The assessment was repeated for some of the samples, where required.

[4] = 1-propanol:water (80:20% v/v), 50° C., Acid Equiv. 1.90
[5] = 1-propanol:water (80:20% v/v), 50° C., Acid Equiv. 1.95
[6] = 1-propanol:water (80:20% v/v), 50° C., Acid Equiv. 2.00
[7] = 1-propanol:water (80:20% v/v), 50° C., Acid Equiv. 2.05
[8] = 1-propanol:water (80:20% v/v), 50° C., Acid Equiv. 2.10

**Q.** Which “lowering of purity at the T23h timepoint versus earlier samples” value ([1]; 1-propanol:water (80:20% v/v), 50° C.) does the source give for `COc1cc(C(=O)O[C@@H]2CCCOc3cc(cc(OC)c3OC)C(=O)NCCCN3CCCN(CC2)CC3)cc(OC)c1OC` [Compound 1 di(hydrogen sulfate)] here?
**A.** The value was “about 0.8 % area”.

**Q.** What about the solution purity ([1]; 1-propanol:water (80:20% v/v), 50° C., 2, 4, 6 and 23 hours) of the same compound?
**A.** Its solution purity is 98.7-99.7 % area.

**Q.** And the “HPLC Conc. T2 h” value [1, 4]?
**A.** The value was 176 mg/mL.

**Q.** And the “HPLC Conc. T4 h” value [1, 4]?
**A.** Its value is 167 mg/mL.

**Q.** And the “HPLC Conc. T6 h” value [1, 4]?
**A.** Its value is 183 mg/mL.

**Q.** What about the “HPLC Conc. T23 h” value [1, 4] of the same compound?
**A.** Its value is 164 mg/mL.

**Q.** What about the “HPLC Purity T2 h” value [1, 4] of the same compound?
**A.** Its value is 99.70 % area.

**Q.** What about the “HPLC Purity T4 h” value [1, 4] of the same compound?
**A.** The value was 99.67 % area.

**Q.** What about the “HPLC Purity T6 h” value [1, 4] of the same compound?
**A.** The value was 99.58 % area.

**Q.** And the “HPLC Purity T23 h” value [1, 4]?
**A.** Its value is 98.94 % area.

**Q.** And the “HPLC Conc. T2 h” value [1, 5]?
**A.** Its value is 175 mg/mL.

**Q.** What about the “HPLC Conc. T4 h” value [1, 5] of the same compound?
**A.** Its value is 169 mg/mL.

**Q.** And the “HPLC Conc. T6 h” value [1, 5]?
**A.** Its value is 179 mg/mL.

**Q.** What about the “HPLC Conc. T23 h” value [1, 5] of the same compound?
**A.** Its value is 162 mg/mL.

**Q.** And the “HPLC Purity T2 h” value [1, 5]?
**A.** The value was 99.60 % area.

**Q.** And the “HPLC Purity T4 h” value [1, 5]?
**A.** The value was 99.61 % area.

**Q.** And the “HPLC Purity T6 h” value [1, 5]?
**A.** Its value is 99.53 % area.

**Q.** What about the “HPLC Purity T23 h” value [1, 5] of the same compound?
**A.** Its value is 99.00 % area.

**Q.** And the “HPLC Conc. T2 h” value [1, 6]?
**A.** Its value is 170 mg/mL.

**Q.** And the “HPLC Conc. T4 h” value [1, 6]?
**A.** The value was 165 mg/mL.

**Q.** And the “HPLC Conc. T6 h” value [1, 6]?
**A.** The value was 169 mg/mL.

**Q.** And the “HPLC Conc. T23 h” value [1, 6]?
**A.** Its value is 170 mg/mL.

**Q.** What about the “HPLC Purity T2 h” value [1, 6] of the same compound?
**A.** The value was 99.66 % area.

**Q.** What about the “HPLC Purity T4 h” value [1, 6] of the same compound?
**A.** The value was 99.58 % area.

**Q.** What about the “HPLC Purity T6 h” value [1, 6] of the same compound?
**A.** Its value is 99.43 % area.

**Q.** And the “HPLC Purity T23 h” value [1, 6]?
**A.** Its value is 98.78 % area.

**Q.** And the “HPLC Conc. T2 h” value [1, 7]?
**A.** The value was 166 mg/mL.

**Q.** What about the “HPLC Conc. T4 h” value [1, 7] of the same compound?
**A.** The value was 165 mg/mL.

**Q.** What about the “HPLC Conc. T6 h” value [1, 7] of the same compound?
**A.** The value was 173 mg/mL.

**Q.** And the “HPLC Conc. T23 h” value [1, 7]?
**A.** Its value is 165 mg/mL.

**Q.** What about the “HPLC Purity T2 h” value [1, 7] of the same compound?
**A.** The value was 99.68 % area.

**Q.** What about the “HPLC Purity T4 h” value [1, 7] of the same compound?
**A.** Its value is 99.52 % area.

**Q.** And the “HPLC Purity T6 h” value [1, 7]?
**A.** Its value is 99.42 % area.

**Q.** What about the “HPLC Purity T23 h” value [1, 7] of the same compound?
**A.** Its value is 98.85 % area.

**Q.** What about the “HPLC Conc. T2 h” value [1, 8] of the same compound?
**A.** The value was 166 mg/mL.

**Q.** What about the “HPLC Conc. T4 h” value [1, 8] of the same compound?
**A.** Its value is 164 mg/mL.

**Q.** And the “HPLC Conc. T6 h” value [1, 8]?
**A.** The value was 168 mg/mL.

**Q.** And the “HPLC Conc. T23 h” value [1, 8]?
**A.** Its value is 167 mg/mL.

**Q.** What about the “HPLC Purity T2 h” value [1, 8] of the same compound?
**A.** The value was 99.60 % area.

**Q.** And the “HPLC Purity T4 h” value [1, 8]?
**A.** Its value is 99.62 % area.

**Q.** And the “HPLC Purity T6 h” value [1, 8]?
**A.** Its value is 99.47 % area.

**Q.** And the “HPLC Purity T23 h” value [1, 8]?
**A.** The value was 98.89 % area.

**Q.** What about the overall solution stability ([1]; 1-propanol:water solvent system at 50° C.) of the same compound?
**A.** The overall solution stability was “substantial stability”.

**Q.** And the “concentration of the solutions by HPLC” value ([1]; input free base concentration 186 mg/mL, 50° C.)?
**A.** Its value is 162000 to 183000 µg/mL.

**Q.** For `CCCN1CCNCCCNC(=O)c2cc(OC)c(OC)c(c2)OCCC[C@@H](OC(=O)c2cc(OC)c(OC)c(OC)c2)CC1`, which “solubility compared with the free base” value [2] is on record?
**A.** The value was “more soluble than the free base”.

**Q.** And the “solubility in aqueous media” value ([2]; high pH (12.0))?
**A.** The value was “very slightly soluble”.

**Q.** And the “solubility in aqueous media” value ([2]; low pH values (<3.0))?
**A.** The value was “freely soluble”.

**Q.** What about the “solubility in aqueous media” value ([2]; pH 4.2) of the same compound?
**A.** The value was “soluble”.

**Q.** What about the “solubility in aqueous media” value ([2]; pH 7.0) of the same compound?
**A.** The value was “slightly soluble”.

**Q.** And the “XRPD of residual solids” value ([3]; attempt 1, 25° C.)?
**A.** The value was “A”.

**Q.** What about the “XRPD of residual solids” value ([3]; attempt 2, 25° C.) of the same compound?
**A.** Its value is “A”.
